This note sets out measurements from US20100035925A1, “COMPOUNDS, PHARMACEUTICAL CO[…] DMETHODS FOR […] INFECTIVITY” ([…], INC, priority 2004, published 2010).

In series [1] the test system is HIV drug resistant strains (pL10R and p1617-1). It is filed as cell-based.

Regarding `O=C(O)C[S+]([O-])c1ccc2c3c(cccc13)C(=O)c1ccccc1-2` (centres unmarked) [Compound 111], the cytotoxicity result in the series on transfected 293 cells is listed as “without significant cytotoxicity”.
`COc1ccc2c(Cc3c4ccccc4cc4ccccc34)cncc2c1O` [Compound 1334]: in series [1], the “inhibitory activity on HIV infectivity (in words)” value was “lesser inhibitory activity”.
